Marks after values point to notes of the source that are not given here.
How the values were obtained:
[1] = Plasma pharmacokinetics (LC-MS/MS, noncompartmental analysis); type: in vivo, human
Method: For patients enrolled in the escalation part of the study, PK blood samples were collected at C1D1 predose; 0.5 h, 1 h, 2 h, 4 h, 8 h, and 12 h postdose; d 2 (24 h), d 3 (48 h), d 4 (72 h), and d 10 predose; d 17 (for 14 d-on/14 d-off regimen) or d 24 (for 7 d-on/7 d-off regimen) predose; and 0.5 h, 1 h, 2 h, 4 h, 8 h, and 12 h postdose. For patients enrolled in the expansion part, PK samples were collected predose on the last administration day and 0.5 h, 1 h, 2 h, 4 h, 8 h, and 12 h postdose on the last administration day. GFH018 levels in plasma samples were analyzed using a validated liquid chromatography-tandem mass spectrometry method. GFH018 PK parameters were determined using noncompartmental analysis methods and calculated using Phoenix WinNonlin Version 8.3.1 (Certara, Princeton, NJ, USA). GFH018 plasma concentrations and PK parameters were summarized descriptively according to the dose level.

pSMAD3 = system: pSMAD3; parameters: method as in preclinical studies (reference not given); conditions: mouse H22 models, ref preclinical studies (reference not given), cited from earlier work
[2] = system: TGF-β-induced SMAD3 phosphorylation; parameters: method as in doi:10.1158/1538-7445.AM2019-3072; conditions: preclinical; cited from earlier work
[3] = parameters: method as in PMID 25488804, PMID 26309397; conditions: consecutive regimens; cited from earlier work
[4] = multiple dose, 5 mg BID 14d-on/14d-off (N=3)
[5] = multiple dose, 10 mg BID 14d-on/14d-off (N=3)
[6] = multiple dose, 20 mg BID 14d-on/14d-off (N=3)
[7] = multiple dose, 30 mg BID 14d-on/14d-off (N=7)
[8] = multiple dose, 40 mg BID 14d-on/14d-off (N=3)
[9] = multiple dose, 50 mg BID 14d-on/14d-off (N=2)
[10] = multiple dose, 65 mg BID 14d-on/14d-off (N=6)
[11] = multiple dose, 85 mg BID 7d-on/7d-off (N=5)
[12] = multiple dose, 85 mg BID 14d-on/14d-off (N=7), escalation and expansion parts combined
[13] = single dose, 5 mg BID 14d-on/14d-off (N = 4)
[14] = single dose, 10 mg BID 14d-on/14d-off (N = 3)
[15] = single dose, 20 mg BID 14d-on/14d-off (N = 4)
[16] = single dose, 30 mg BID 14d-on/14d-off (N = 7)
[17] = single dose, 40 mg BID 14d-on/14d-off (N = 4)
[18] = single dose, 50 mg BID 14d-on/14d-off (N = 4)
[19] = single dose, 65 mg BID 14d-on/14d-off (N = 6)
[20] = single dose, 85 mg BID 7d-on/7d-off (N = 6)
[21] = single dose, 85 mg BID 14d-on/14d-off (N = 9), dose escalation part only

## Cc1cccc(-c2nn3c(c2-c2ccc4ncnn4c2/C=C/C(N)=O)CCC3)n1 [GFH018]
[1]; 5 – 85 mg
  PK linearity: linear and dose-independent
[1]; 5 – 85 mg (single and multiple dose)
  mean half-life: 2.25 to 8.60 h
[1]; all cohorts
  geometric CV% of exposure (Cmax and AUC) at the steady state: 7.3–168.9%
[1]; [4]
  AUCtau, geometric mean (geometric CV): 597 (61.1) h*ng/mL
  Cmax, geometric mean (geometric CV): 165 (15.7) ng/mL
  Cmin, geometric mean (geometric CV): 7.48 (208.2) ng/mL
  Racc (accumulation ratio calculated by AUC), geometric mean (geometric CV): 1.02 (37.9)
  Tmax, median (minimum, maximum): 0.88 (0.42, 0.95) h
  t1/2, geometric mean (geometric CV): 2.67 (31.0) h
[1]; [5]
  AUCtau, geometric mean (geometric CV): 997 (168.9) h*ng/mL
  Cmax, geometric mean (geometric CV): 291 (124.9) ng/mL
  Cmin, geometric mean (geometric CV): 15.8 (212.1) ng/mL
  Racc (accumulation ratio calculated by AUC), geometric mean (geometric CV): 1.22 (40.3)
  Tmax, median (minimum, maximum): 0.92 (0.90, 1.27) h
  t1/2, geometric mean (geometric CV): 2.25 (26.5) h
[1]; [6]
  AUCtau, geometric mean (geometric CV): 2056 (76.9) h*ng/mL
  Cmax, geometric mean (geometric CV): 676 (48.0) ng/mL
  Cmin, geometric mean (geometric CV): 25.5 (137.3) ng/mL
  Racc (accumulation ratio calculated by AUC), geometric mean (geometric CV): 1.15 (17.4)
  Tmax, median (minimum, maximum): 0.93 (0.57, 1.08) h
  t1/2, geometric mean (geometric CV): 2.55 (24.6) h
[1]; [7]
  AUCtau, geometric mean (geometric CV): 5605 (76.6) h*ng/mL
  Cmax, geometric mean (geometric CV): 1167 (87.9) ng/mL
  Cmin, geometric mean (geometric CV): 144 (107.2) ng/mL
  Racc (accumulation ratio calculated by AUC), geometric mean (geometric CV): 1.32 (39.4)
  Tmax, median (minimum, maximum): 1.10 (0.47, 2.58) h
  t1/2, geometric mean (geometric CV): 4.09 (36.8) h
[1]; [8]
  AUCtau, geometric mean (geometric CV): 5144 (30.3) h*ng/mL
  Cmax, geometric mean (geometric CV): 1599 (33.7) ng/mL
  Cmin, geometric mean (geometric CV): 21.0 (2741.3) ng/mL
  Racc (accumulation ratio calculated by AUC), geometric mean (geometric CV): 1.18 (6.7)
  Tmax, median (minimum, maximum): 0.88 (0.38, 1.00) h
  t1/2, geometric mean (geometric CV): 2.45 (42.8) h
[1]; [9]
  AUCtau, geometric mean (geometric CV): 4432 (43.6) h*ng/mL
  Cmax, geometric mean (geometric CV): 1253 (7.3) ng/mL
  Cmin, geometric mean (geometric CV): 91.4 (72.9) ng/mL
  Racc (accumulation ratio calculated by AUC), geometric mean (geometric CV): 1.26 (9.2)
  Tmax, median (minimum, maximum): 0.75 (0.50, 1.00) h
  t1/2, geometric mean (geometric CV): 3.53 (3.1) h
[1]; [10]
  AUCtau, geometric mean (geometric CV): 8189 (29.3) h*ng/mL
  Cmax, geometric mean (geometric CV): 2303 (34.0) ng/mL
  Cmin, geometric mean (geometric CV): 129 (51.8) ng/mL
  Racc (accumulation ratio calculated by AUC), geometric mean (geometric CV): 1.17 (25.3)
  Tmax, median (minimum, maximum): 1.88 (0.50, 2.00) h
  t1/2, geometric mean (geometric CV): 2.59 (9.6) h
[1]; [11]
  AUCtau, geometric mean (geometric CV): 7732 (46.8) h*ng/mL
  Cmax, geometric mean (geometric CV): 2193 (29.1) ng/mL
  Cmin, geometric mean (geometric CV): 115 (92.5) ng/mL
  Racc (accumulation ratio calculated by AUC), geometric mean (geometric CV): 1.04 (32.5)
  Tmax, median (minimum, maximum): 0.50 (0.50, 1.00) h
  t1/2, geometric mean (geometric CV): 2.92 (18.3) h
[1]; [12]
  AUCtau, geometric mean (geometric CV): 11353 (27.9) h*ng/mL
  Cmax, geometric mean (geometric CV): 3034 (33.6) ng/mL
  Cmin, geometric mean (geometric CV): 164 (54.3) ng/mL
  Tmax, median (minimum, maximum): 0.50 (0.50, 2.05) h
[1]; multiple dose, 85 mg BID 14d-on/14d-off (N=7), n=5 for Racc
  Racc (accumulation ratio calculated by AUC), geometric mean (geometric CV): 1.18 (24.1)^e
[1]; multiple dose, 85 mg BID 14d-on/14d-off (N=7), n=5 for t1/2
  t1/2, geometric mean (geometric CV): 3.01 (20.0)^d h
[1]; multiple doses
  geometric mean accumulation ratio (Racc, by AUC) across all dose groups: 1.02–1.32
[1]; multiple doses / overall, 5–85 mg
  increase of exposure with dose: increased in an approximately proportional manner
[1]; multiple doses, any cohort
  accumulation: No obvious accumulation
[1]; oral
  absorption after oral administration: rapidly absorbed
[1]; single dose, 5–85 mg
  increase of plasma exposure (AUC0-t and Cmax) with dose: increased in an approximately proportional manner
[1]; [13]
  AUC0-12, geometric mean (geometric CV): 690 (51.3) h*ng/mL
  AUC0-inf, geometric mean (geometric CV): 769 (58.3) h*ng/mL
  AUC0-t, geometric mean (geometric CV): 754 (58.4) h*ng/mL
  Cmax, geometric mean (geometric CV): 215 (50.2) ng/mL
  Tmax, median (minimum, maximum): 0.65 (0.40, 0.97) h
  t1/2, geometric mean (geometric CV): 4.42 (82.9) h
[1]; [14]
  AUC0-12, geometric mean (geometric CV): 819 (99.0) h*ng/mL
  AUC0-inf, geometric mean (geometric CV): 864 (110.5) h*ng/mL
  AUC0-t, geometric mean (geometric CV): 852 (111.3) h*ng/mL
  Cmax, geometric mean (geometric CV): 250 (72.2) ng/mL
  Tmax, median (minimum, maximum): 0.88 (0.42, 0.93) h
  t1/2, geometric mean (geometric CV): 3.11 (106.3) h
[1]; [15]
  AUC0-12, geometric mean (geometric CV): 2551 (107.3) h*ng/mL
  AUC0-inf, geometric mean (geometric CV): 2825 (123.9) h*ng/mL
  AUC0-t, geometric mean (geometric CV): 2802 (123.7) h*ng/mL
  Cmax, geometric mean (geometric CV): 743 (65.1) ng/mL
  Tmax, median (minimum, maximum): 0.49 (0.43, 1.03) h
  t1/2, geometric mean (geometric CV): 4.90 (115.1) h
[1]; [16]
  AUC0-12, geometric mean (geometric CV): 4250 (50.4) h*ng/mL
  AUC0-inf, geometric mean (geometric CV): 4926 (47.8) h*ng/mL
  AUC0-t, geometric mean (geometric CV): 4895 (48.2) h*ng/mL
  Cmax, geometric mean (geometric CV): 972 (82.7) ng/mL
  Tmax, median (minimum, maximum): 0.95 (0.37, 3.80) h
  t1/2, geometric mean (geometric CV): 5.74 (37.6) h
[1]; [17]
  AUC0-12, geometric mean (geometric CV): 4147 (30.3) h*ng/mL
  AUC0-inf, geometric mean (geometric CV): 4603 (35.2) h*ng/mL
  AUC0-t, geometric mean (geometric CV): 4561 (35.3) h*ng/mL
  Cmax, geometric mean (geometric CV): 1180 (24.7) ng/mL
  Tmax, median (minimum, maximum): 0.69 (0.37, 0.90) h
[1]; single dose, 40 mg BID 14d-on/14d-off (N = 4), n=3 for t1/2
  t1/2, geometric mean (geometric CV): 8.60 (103.8)^b h
[1]; [18]
  AUC0-12, geometric mean (geometric CV): 5100 (57.9) h*ng/mL
  AUC0-inf, geometric mean (geometric CV): 5906 (49.3) h*ng/mL
  AUC0-t, geometric mean (geometric CV): 5858 (50.2) h*ng/mL
  Cmax, geometric mean (geometric CV): 1209 (85.4) ng/mL
  Tmax, median (minimum, maximum): 0.96 (0.47, 1.92) h
  t1/2, geometric mean (geometric CV): 5.93 (51.2) h
[1]; [19]
  AUC0-12, geometric mean (geometric CV): 7028 (10.9) h*ng/mL
  AUC0-inf, geometric mean (geometric CV): 7870 (17.9) h*ng/mL
  AUC0-t, geometric mean (geometric CV): 7831 (17.8) h*ng/mL
  Cmax, geometric mean (geometric CV): 2172 (16.3) ng/mL
  Tmax, median (minimum, maximum): 0.68 (0.48, 2.00) h
  t1/2, geometric mean (geometric CV): 5.51 (34.3) h
[1]; [20]
  AUC0-12, geometric mean (geometric CV): 7455 (27.3) h*ng/mL
  AUC0-inf, geometric mean (geometric CV): 8284 (28.1) h*ng/mL
  AUC0-t, geometric mean (geometric CV): 8240 (27.9) h*ng/mL
  Cmax, geometric mean (geometric CV): 2555 (29.9) ng/mL
  Tmax, median (minimum, maximum): 0.50 (0.50, 1.10) h
  t1/2, geometric mean (geometric CV): 7.45 (61.8) h
[1]; [21]
  AUC0-12, geometric mean (geometric CV): 10074 (42.0) h*ng/mL
  AUC0-inf, geometric mean (geometric CV): 11164 (45.4) h*ng/mL
  AUC0-t, geometric mean (geometric CV): 11119 (45.5) h*ng/mL
  Cmax, geometric mean (geometric CV): 3225 (35.5) ng/mL
  Tmax, median (minimum, maximum): 0.58 (0.45, 1.12) h
  t1/2, geometric mean (geometric CV): 6.37 (41.6) h
pSMAD3; after the 1-h dose
  effective concentration (efficacy with approximately 50% inhibition of pSMAD3): 125 ng/ml
pSMAD3; at 125 ng/ml after the 1-h dose
  inhibition of pSMAD3 at which efficacy was observed: approximately 50%
[2]
  effect on TGF-β-induced SMAD3 phosphorylation: ability to inhibit TGF-β-induced SMAD3 phosphorylation
[3]
  cardiac findings in toxicology studies: cardiac lesions occur
